Results from US20200291018A1, “TAM KINASE INHIBITORS” (SYROS PHARMACEUTICALS, INC., priority 2017, published 2020).

What was measured:
AXL = target: T1, AXL (Homo sapiens, UniProt P30530); assay: TR-FRET kinase activity assay, AXL; format: biochemical; conditions: ATP at Km, 60 minutes
T1 sequence (P30530 26-894): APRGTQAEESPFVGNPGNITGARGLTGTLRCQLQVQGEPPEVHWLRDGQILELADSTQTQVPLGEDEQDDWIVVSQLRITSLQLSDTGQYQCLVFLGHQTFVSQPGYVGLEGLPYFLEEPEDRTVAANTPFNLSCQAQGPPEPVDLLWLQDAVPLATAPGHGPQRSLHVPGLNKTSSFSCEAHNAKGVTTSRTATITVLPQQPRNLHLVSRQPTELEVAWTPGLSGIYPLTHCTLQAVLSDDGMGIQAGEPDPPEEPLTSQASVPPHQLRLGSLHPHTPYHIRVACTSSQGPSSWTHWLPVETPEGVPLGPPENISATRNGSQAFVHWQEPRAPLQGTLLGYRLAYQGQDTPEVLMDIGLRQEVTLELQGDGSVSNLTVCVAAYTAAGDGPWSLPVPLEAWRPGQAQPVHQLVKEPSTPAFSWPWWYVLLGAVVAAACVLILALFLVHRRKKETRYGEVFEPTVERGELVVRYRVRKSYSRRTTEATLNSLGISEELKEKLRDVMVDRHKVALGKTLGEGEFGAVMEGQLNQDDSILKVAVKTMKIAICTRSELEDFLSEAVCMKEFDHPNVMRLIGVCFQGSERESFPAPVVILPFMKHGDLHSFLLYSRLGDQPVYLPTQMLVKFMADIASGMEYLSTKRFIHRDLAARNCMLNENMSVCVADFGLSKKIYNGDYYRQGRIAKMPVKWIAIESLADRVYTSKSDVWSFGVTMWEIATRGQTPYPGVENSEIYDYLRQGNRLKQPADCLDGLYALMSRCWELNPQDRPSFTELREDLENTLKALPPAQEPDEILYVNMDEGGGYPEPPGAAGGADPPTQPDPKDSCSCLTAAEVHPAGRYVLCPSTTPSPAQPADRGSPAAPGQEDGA
Protocol: (§1) IC50 values for compound inhibition of AXL, FLT3, MERTK and TYRO3 activity were determined using a TR-FRET activity assay. A peptide substrate with a fluorescent label is phosphorylated on a tyrosine by each enzyme, where the now phosphorylated product is bound by a Europium-labeled antibody specific to that phosphorylation site. The proximity between the antibody and the substrate gives a signal known as TR-FRET. As the enzyme is inhibited by compound, less phosphorylated peptide product is made, causing a decrease in overall signal.
(§2) Activity assays were performed in a 384-well, small volume, black microplates in an active enzyme volume of 10 uL and final developed volume of 20 uL. Final assay conditions are 50 mM HEPES pH 7.5, 10 mM MgCl2, 1 mM EGTA, 0.01% Brij 35 and 1 mM DTT, all at RT. Enzyme, substrate-labeled peptide and compound are mixed, and then the reaction is initiated with the addition of ATP at Km concentration for each enzyme. The reaction is allowed to run 60 minutes and then quenched with a 12.5 mM EDTA (ethylenediamine tetraacetic acid) solution. The plate is then developed with the addition of Europium-labeled antibody for a final volume of 20 uL and is then incubated for 30 minutes in darkness. Plates are read in a PHERASTAR® plate reader. Data are analyzed in GraphPad PRISM.

MERTK = target: T2, MERTK (Homo sapiens, UniProt Q12866); assay: TR-FRET kinase activity assay, MERTK; format: biochemical; conditions: for IC50: TR-FRET activity assay, ATP at Km, 60 minutes, read-out: Mer IC50; for Mer/Flt3 ratio (FLT3 IC50/Mer IC50): ratio calculated as FLT3 IC50/Mer IC50
T2 sequence (Q12866 21-999): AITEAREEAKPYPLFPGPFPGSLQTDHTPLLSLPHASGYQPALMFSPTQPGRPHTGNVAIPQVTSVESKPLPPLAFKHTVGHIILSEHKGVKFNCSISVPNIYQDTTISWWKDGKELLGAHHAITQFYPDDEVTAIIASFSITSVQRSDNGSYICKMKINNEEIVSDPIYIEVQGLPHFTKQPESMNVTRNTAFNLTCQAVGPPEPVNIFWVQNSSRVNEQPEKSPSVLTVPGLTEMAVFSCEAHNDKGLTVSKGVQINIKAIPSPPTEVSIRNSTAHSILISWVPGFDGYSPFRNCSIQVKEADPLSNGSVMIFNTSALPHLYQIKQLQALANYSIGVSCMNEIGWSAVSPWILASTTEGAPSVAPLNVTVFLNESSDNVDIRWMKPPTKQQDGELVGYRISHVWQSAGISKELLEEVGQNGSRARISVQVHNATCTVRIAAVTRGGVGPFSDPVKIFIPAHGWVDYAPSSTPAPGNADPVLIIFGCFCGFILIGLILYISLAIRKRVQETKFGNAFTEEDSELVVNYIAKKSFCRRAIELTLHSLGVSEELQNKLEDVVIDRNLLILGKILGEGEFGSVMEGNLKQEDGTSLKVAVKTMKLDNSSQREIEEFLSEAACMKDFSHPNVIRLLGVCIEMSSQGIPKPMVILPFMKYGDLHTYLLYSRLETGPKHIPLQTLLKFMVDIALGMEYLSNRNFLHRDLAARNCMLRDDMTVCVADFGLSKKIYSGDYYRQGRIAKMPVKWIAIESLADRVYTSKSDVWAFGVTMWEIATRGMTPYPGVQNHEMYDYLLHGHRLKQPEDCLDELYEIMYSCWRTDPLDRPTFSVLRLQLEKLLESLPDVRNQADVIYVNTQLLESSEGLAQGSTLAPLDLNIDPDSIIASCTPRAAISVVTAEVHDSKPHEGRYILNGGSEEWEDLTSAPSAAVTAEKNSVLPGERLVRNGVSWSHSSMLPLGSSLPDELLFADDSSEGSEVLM
Protocol: as §1, §2

| SMILES | IC50 (AXL) | IC50 (MERTK) | Mer/Flt3 ratio (FLT3 IC50/Mer IC50) (MERTK) |
| --- | --- | --- | --- |
| CC[C@H](C)Nc1ncc2c(OC3CCN(C)CC3)ncc([C@H]3CC[C@H](O)CC3)c2n1 [Compound 221] | 100 to 1000 nM | ≤ 100 nM | +++ (a ratio of >100) |
| CC[C@H](C)Nc1ncc2c(N3CC[C@@H](N(C)C)C3)ncc([C@H]3CC[C@H](O)CC3)c2n1 [Compound 222] | 100 to 1000 nM | ≤ 100 nM | ++ (a ratio of between 10 and 100) |
| CC[C@H](C)Nc1ncc2c(OC3C[C@H]4CC[C@@H](C3)O4)ncc([C@H]3CC[C@H](O)CC3)c2n1 (stereo partly drawn) [Compound 223] | 100 to 1000 nM | ≤ 100 nM | ++ (a ratio of between 10 and 100) |
| O[C@H]1CC[C@H](c2cnc(OC3CCNCC3)c3cnc(NCCC(F)(F)F)nc32)CC1 [Compound 224] | ≤ 100 nM | ≤ 100 nM | ++ (a ratio of between 10 and 100) |
| CC[C@H](C)Nc1ncc2c(=O)n(C3CCOCC3)cc([C@H]3CC[C@H](O)CC3)c2n1 [Compound 225] | 100 to 1000 nM | ≤ 100 nM | ++ (a ratio of between 10 and 100) |
| CC[C@H](C)Nc1ncc2c(OC3CCOCC3)ncc([C@H]3CC[C@H](O)CC3)c2n1 [Compound 226] | 100 to 1000 nM | ≤ 100 nM | +++ (a ratio of >100) |
| CC[C@H](C)Nc1ncc2c(OC3CC(C)(C)N(C)C(C)(C)C3)ncc([C@H]3CC[C@H](O)CC3)c2n1 [Compound 227] | ≤ 100 nM | ≤ 100 nM | +++ (a ratio of >100) |
| CCC(CC)Nc1ncc2c(OC3CCNCC3)ncc([C@H]3CC[C@H](O)CC3)c2n1 [Compound 228] | 100 to 1000 nM | ≤ 100 nM | ++ (a ratio of between 10 and 100) |
| CC[C@H](C)Nc1ncc2c(O[C@H]3CC[C@H](O)CC3)ncc([C@H]3CC[C@H](O)CC3)c2n1 [Compound 229] | 100 to 1000 nM | ≤ 100 nM | ++ (a ratio of between 10 and 100) |
| CC[C@H](C)Nc1ncc2c(Cl)ncc([C@H]3CC[C@H](O)CC3)c2n1 [Compound 230] | 100 to 1000 nM | ≤ 100 nM | +++ (a ratio of >100) |
| CC[C@H](C)NC1=NC2C([C@H]3CC[C@H](O)CC3)=CN(C(C)C)C(=O)C2C=N1 (stereo partly drawn) [Compound 231] | 100 to 1000 nM | ≤ 100 nM | +++ (a ratio of >100) |
| O[C@H]1CC[C@H](c2cnc(OC3CCNCC3)c3cnc(N[C@@H]4CCCOC4)nc32)CC1 [Compound 232] | 100 to 1000 nM | 100 to 1000 nM | + (a ratio of >2.0 and <10) |
| CC[C@H](C)Nc1ncc2c(OC3CCN(S(C)(=O)=O)CC3)ncc([C@H]3CC[C@H](O)CC3)c2n1 [Compound 233] | ≤ 100 nM | ≤ 100 nM | +++ (a ratio of >100) |
| CC[C@H](C)Nc1ncc2c(=O)n(C3CCN(S(C)(=O)=O)CC3)cc([C@H]3CC[C@H](O)CC3)c2n1 [Compound 234] | 100 to 1000 nM | ≤ 100 nM | +++ (a ratio of >100) |
| CCOc1ncc([C@H]2CC[C@H](O)CC2)c2nc(N[C@@H](C)CC)ncc12 [Compound 235] | ≤ 100 nM | ≤ 100 nM | +++ (a ratio of >100) |
| CCOc1ncc(CC2CCNCC2)c2nc(N[C@@H](C)CC)ncc12 [Compound 236] | 100 to 1000 nM | ≤ 100 nM | + (a ratio of >2.0 and <10) |
| CC[C@H](C)Nc1ncc2c(OC3C[C@H]4CC[C@@H](C3)O4)ncc([C@H]3CC[C@H](O)CC3)c2n1 (stereo partly drawn) [Compound 237] | 1000 to 10000 nM | ≤ 100 nM | +++ (a ratio of >100) |
| CC[C@H](C)Nc1ncc2c(NC34CCC(O)(CC3)CC4)ncc([C@H]3CC[C@H](O)CC3)c2n1 [Compound 238] | 100 to 1000 nM | ≤ 100 nM | ++ (a ratio of between 10 and 100) |

Other lines, results leading:

| IC50 (AXL) | IC50 (MERTK) | Mer/Flt3 ratio (FLT3 IC50/Mer IC50) (MERTK) | SMILES |
| --- | --- | --- | --- |
| 100 to 1000 nM | ≤ 100 nM | +++ (a ratio of >100) | CC[C@H](C)Nc1ncc2c(OC3CCN(C)CC3)ncc([C@H]3CC[C@H](O)CC3)c2n1 [Compound 239] |
| 1000 to 10000 nM | ≤ 100 nM | +++ (a ratio of >100) | CC[C@H](C)Nc1ncc2c(C3CCN(C)CC3)ncc([C@H]3CC[C@H](O)CC3)c2n1 [Compound 240] |
| 1000 to 10000 nM | 100 to 1000 nM | ++ (a ratio of between 10 and 100) | CC[C@H](C)Nc1ncc2c(OC(CO)CO)ncc([C@H]3CC[C@H](O)CC3)c2n1 [Compound 241] |
| 1000 to 10000 nM | 100 to 1000 nM | ++ (a ratio of between 10 and 100) | COC[C@H](C)Nc1ncc2c(OC3CCOCC3)ncc(C3=CCC4(CC3)OCCO4)c2n1 [Compound 242] |
| 1000 to 10000 nM | ≤ 100 nM | +++ (a ratio of >100) | COC[C@H](C)Nc1ncc2c(OC3CCOCC3)ncc(C3CCC4(CC3)OCCO4)c2n1 [Compound 243] |
| 100 to 1000 nM | ≤ 100 nM | +++ (a ratio of >100) | CCc1ncc([C@H]2CC[C@H](O)CC2)c2nc(N[C@@H](C)CC)ncc12 [Compound 244] |
| 100 to 1000 nM | ≤ 100 nM | +++ (a ratio of >100) | CC[C@H](C)Nc1ncc2c(OCC(F)(F)F)ncc([C@H]3CC[C@H](O)CC3)c2n1 [Compound 245] |
| 100 to 1000 nM | ≤ 100 nM | +++ (a ratio of >100) | CC[C@H](C)Nc1ncc2c(OC3CC(C)(C)NC(C)(C)C3)ncc([C@H]3CC[C@H](O)CC3)c2n1 [Compound 246] |
| 1000 to 10000 nM | 100 to 1000 nM | ++ (a ratio of between 10 and 100) | CC[C@H](C)Nc1ncc2c(OC3C[C@@H](C)O[C@@H](C)C3)ncc([C@H]3CC[C@H](O)CC3)c2n1 (stereo partly drawn) [Compound 247] |
| 100 to 1000 nM | ≤ 100 nM | +++ (a ratio of >100) | CC[C@H](C)Nc1ncc2c(=O)n(CC34CCC(N)(CC3)CC4)cc([C@H]3CC[C@H](O)CC3)c2n1 [Compound 251] |
